Values quoted from earlier work, collected in US6517854B2, “Antimicrobial sanitizing lotion with skin protection properties” (priority 1999, dated 2003).

Tests used:
gram-negative bacteria = settings: organisms listed in the 1st table r28-r63
gram-positive bacteria = settings: organisms listed in the 1st table r1-r26
fungi and yeasts = settings: organisms listed in the 1st table r65-r73

Oc1cc(Cl)ccc1Oc1ccc(Cl)cc1Cl [TRICLOSAN, 2,4,4′-trichloro-2′-hydroxydiphenyl ether]
demonstrated efficacy: efficacy against gram-negative bacteria (gram-negative bacteria) | efficacy against gram-positive bacteria (gram-positive bacteria) | efficacy against fungi and yeasts (fungi and yeasts)
